Assay results published in article PMC8998675 (Molecular Pharmacology, 2021).

Key:
β2AR [1] = molecular target: T1, β2AR (Homo sapiens, UniProt P07550); assay: 35S-GTPγS binding to heterotrimeric Gs (SPA), β2AR in HDL; settings: epinephrine (10 µM) stimulation; cmpd-6 or A9 20 µM, Nb6B9 1 µM, ICI-118551 10 µM
Method: After incubations, the β2AR-Gs complexes were captured on YSi beads.

β2AR [2] = molecular target: T1, β2AR; assay: 125I-CYP competition radioligand binding at β2AR in HDL particles (nanodiscs)

T1 sequence (P07550 whole entry): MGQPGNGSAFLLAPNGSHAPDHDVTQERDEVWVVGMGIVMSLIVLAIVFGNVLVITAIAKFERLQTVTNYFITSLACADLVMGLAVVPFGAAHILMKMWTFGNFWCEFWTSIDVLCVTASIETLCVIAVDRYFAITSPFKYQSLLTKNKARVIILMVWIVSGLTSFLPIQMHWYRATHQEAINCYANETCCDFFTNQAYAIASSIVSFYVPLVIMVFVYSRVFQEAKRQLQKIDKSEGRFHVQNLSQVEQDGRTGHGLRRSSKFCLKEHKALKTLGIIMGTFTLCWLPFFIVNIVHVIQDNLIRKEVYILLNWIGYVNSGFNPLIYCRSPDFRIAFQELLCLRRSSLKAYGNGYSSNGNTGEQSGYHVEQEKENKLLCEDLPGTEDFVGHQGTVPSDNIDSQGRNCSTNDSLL

- Kd (β2AR [2]; LogKT, dissociation constant of PAM, carvedilol-bound β2AR): 2950 nM
- PAM activity with agonists including epinephrine (affinity shift) (β2AR [2]; analog 20 µM, Fig. 5A(i), 5C): absolutely no PAM activity
- Kd (β2AR [2]; binding affinity of modulator for the receptor in the presence of carvedilol, from shifts of carvedilol LogIC50 versus modulator dose): ~2900 nM
SMILES: CC(C)N(C)S(=O)(=O)c1ccc(Sc2ccc(C(N)=O)cc2)c(C(=O)N[C@@H](CC(N)=O)Cc2ccc(C(C)(C)C)cc2)c1 [A9]
- 35S-GTPγS binding to Gs / activation of Gs (β2AR [1]): markedly blocks the agonist-stimulated activation of Gs
- cooperativity with carvedilol (affinity shift) (β2AR [2]; analog 20 µM, Fig. 5A(ii)): retains its positive cooperativity with carvedilol
